Laboratory results: patent publication US20210032257A1, “(E)-1-(4-(DIMETHYLAMINO)BUT-2-ENOYL)PYRROLIDIN-3-YL 4-((3-ISOPROPYL-5-METHYLPYRAZOLO[1,5-A]PYRIMIDIN-7-YL)AMINO)PIPERIDINE-1-CARBOXYLATE FOR INHIBITING CDK7” (Eli Lilly and Company, priority 2017, published 2021)

Columns and labels:
Assay in all cases: Biomarker study proliferation (CellTiter-Glo)
Assay type in all cases: cell-based
A2058 = tested on: A2058
In short: (§1)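 Ten concentrations, threefold apart, starting from a 10 mM DMSO working stock, are applied to cells seeded at 5000/well. Exposure lasts 7 days at 37 °C, 5% CO2, and viability is read by luminescence.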

COLO320 = tested on: COLO320
In short: as §1

CORL88 = tested on: CORL88
In short: as §1

HCC1187 = tested on: HCC1187
In short: as §1

HEP3B217 = tested on: HEP3B217
In short: as §1

HS766T = tested on: HS766T
In short: as §1

KELLY = tested on: KELLY
In short: as §1

MCF7 = tested on: MCF7
In short: as §1

NCIH2196 = tested on: NCIH2196
In short: as §1

NCIH441 = tested on: NCIH441
In short: as §1

NCIH520 = tested on: NCIH520
In short: as §1

NCIH524 = tested on: NCIH524
In short: as §1

NUGC4 = tested on: NUGC4
In short: as §1

PATU8988T = tested on: PATU8988T
In short: as §1

SKUT1 = tested on: SKUT1
In short: as §1

SNU1 = tested on: SNU1
In short: as §1

TCCSUP = tested on: TCCSUP
In short: as §1

U87MG = tested on: U87MG
In short: as §1

Cc1cc(NC2CCN(C(=O)O[C@H]3CCN(C(=O)/C=C/CN(C)C)C3)CC2)n2ncc(C(C)C)c2n1 [Example 1, [(3S)-1-[(E)-4-(dimethylamino)but-2-enoyl]pyrrolidin-3-yl] 4-[(3-isopropyl-5-methyl-pyrazolo[1,5-a]pyrimidin-7-yl)amino]piperidine-1-carboxylate]
Anti-proliferation effect % Inh. (A2058; A2058, SKIN, 7 days): 97% | Anti-proliferation effect Outcome (A2058; A2058, SKIN, 7 days): Cytotoxic (cytotoxic (IC50<1 μM and % inhibition ≥70%)) | IC50 (A2058; Homo sapiens, A2058, 168 h, read-out: Anti-proliferation effect IC50): 30 nM | Anti-proliferation effect % Inh. (COLO320; COLO320, INTESTINE, 7 days): 73% | Anti-proliferation effect Outcome (COLO320; COLO320, INTESTINE, 7 days): Cytotoxic (cytotoxic (IC50<1 μM and % inhibition ≥70%)) | IC50 (COLO320; Homo sapiens, COLO 320, 168 h, read-out: Anti-proliferation effect IC50): 189 nM | Anti-proliferation effect % Inh. (CORL88; CORL88, LUNG, 7 days): 34% | Anti-proliferation effect Outcome (CORL88; CORL88, LUNG, 7 days): Insensitive (insensitive (IC50≥1 μM)) | IC50 (CORL88; Homo sapiens, COR-L88, 168 h, read-out: Anti-proliferation effect IC50): 4200 nM | Anti-proliferation effect % Inh. (HCC1187; HCC1187, BREAST, 7 days): 73% | Anti-proliferation effect Outcome (HCC1187; HCC1187, BREAST, 7 days): Cytotoxic (cytotoxic (IC50<1 μM and % inhibition ≥70%)) | IC50 (HCC1187; Homo sapiens, HCC1187, 168 h, read-out: Anti-proliferation effect IC50): 27 nM | IC50 (HEP3B217; 168 h, read-out: Anti-proliferation effect IC50): 33 nM | Anti-proliferation effect % Inh. (HEP3B217; HEP3B217, LIVER, 7 days): 66% | Anti-proliferation effect Outcome (HEP3B217; HEP3B217, LIVER, 7 days): Cytostatic (cytostatic (IC50<1 μM and % inhibition <70%)) | Anti-proliferation effect % Inh. (HS766T; HS766T, PANCREAS, 7 days): 72% | Anti-proliferation effect Outcome (HS766T; HS766T, PANCREAS, 7 days): Cytotoxic (cytotoxic (IC50<1 μM and % inhibition ≥70%)) | IC50 (HS766T; Hs766T, 168 h, read-out: Anti-proliferation effect IC50): 62 nM | Anti-proliferation effect % Inh. (KELLY; KELLY, CNS, 7 days): 80% | Anti-proliferation effect Outcome (KELLY; KELLY, CNS, 7 days): Cytotoxic (cytotoxic (IC50<1 μM and % inhibition ≥70%)) | IC50 (KELLY; Kelly, 168 h, read-out: Anti-proliferation effect IC50): 58 nM | IC50 (MCF7; Homo sapiens, MCF7, 168 h, read-out: Anti-proliferation effect IC50): 155 nM | Anti-proliferation effect % Inh. (MCF7; MCF7, BREAST, 7 days): 58% | Anti-proliferation effect Outcome (MCF7; MCF7, BREAST, 7 days): Cytostatic (cytostatic (IC50<1 μM and % inhibition <70%)) | IC50 (NCIH2196; Homo sapiens, NCI-H2196, 168 h, read-out: Anti-proliferation effect IC50): 123 nM | Anti-proliferation effect % Inh. (NCIH2196; NCIH2196, LUNG, 7 days): 63% | Anti-proliferation effect Outcome (NCIH2196; NCIH2196, LUNG, 7 days): Cytostatic (cytostatic (IC50<1 μM and % inhibition <70%)) | IC50 (NCIH441; Homo sapiens, NCI-H441, 168 h, read-out: Anti-proliferation effect IC50): 14 nM | Anti-proliferation effect % Inh. (NCIH441; NCIH441, LUNG, 7 days): 84% | Anti-proliferation effect Outcome (NCIH441; NCIH441, LUNG, 7 days): Cytotoxic (cytotoxic (IC50<1 μM and % inhibition ≥70%)) | IC50 (NCIH520; Homo sapiens, NCI-H520, 168 h, read-out: Anti-proliferation effect IC50): 82 nM | Anti-proliferation effect % Inh. (NCIH520; NCIH520, LUNG, 7 days): 77% | Anti-proliferation effect Outcome (NCIH520; NCIH520, LUNG, 7 days): Cytotoxic (cytotoxic (IC50<1 μM and % inhibition ≥70%)) | IC50 (NCIH524; Homo sapiens, NCI-H524, 168 h, read-out: Anti-proliferation effect IC50): 37 nM | Anti-proliferation effect % Inh. (NCIH524; NCIH524, LUNG, 7 days): 92% | Anti-proliferation effect Outcome (NCIH524; NCIH524, LUNG, 7 days): Cytotoxic (cytotoxic (IC50<1 μM and % inhibition ≥70%)) | IC50 (NUGC4; Homo sapiens, NUGC-4, 168 h, read-out: Anti-proliferation effect IC50): 19 nM | Anti-proliferation effect % Inh. (NUGC4; NUGC4, STOMACH, 7 days): 83% | Anti-proliferation effect Outcome (NUGC4; NUGC4, STOMACH, 7 days): Cytotoxic (cytotoxic (IC50<1 μM and % inhibition ≥70%)) | IC50 (PATU8988T; Homo sapiens, PaTu 8988t, 168 h, read-out: Anti-proliferation effect IC50): 201 nM | Anti-proliferation effect % Inh. (PATU8988T; PATU8988T, PANCREAS, 7 days): 55% | Anti-proliferation effect Outcome (PATU8988T; PATU8988T, PANCREAS, 7 days): Cytostatic (cytostatic (IC50<1 μM and % inhibition <70%)) | IC50 (SKUT1; Homo sapiens, SK-UT-1, 168 h, read-out: Anti-proliferation effect IC50): 41 nM | Anti-proliferation effect % Inh. (SKUT1; SKUT1, SOFT TISSUE, 7 days): 89% | Anti-proliferation effect Outcome (SKUT1; SKUT1, SOFT TISSUE, 7 days): Cytotoxic (cytotoxic (IC50<1 μM and % inhibition ≥70%)) | IC50 (SNU1; Homo sapiens, SNU1, 168 h, read-out: Anti-proliferation effect IC50): 105 nM | Anti-proliferation effect % Inh. (SNU1; SNU1, STOMACH, 7 days): 68% | Anti-proliferation effect Outcome (SNU1; SNU1, STOMACH, 7 days): Cytostatic (cytostatic (IC50<1 μM and % inhibition <70%)) | IC50 (TCCSUP; Homo sapiens, TCC-SUP, 168 h, read-out: Anti-proliferation effect IC50): 40 nM | Anti-proliferation effect % Inh. (TCCSUP; TCCSUP, URINARY, 7 days): 61% | Anti-proliferation effect Outcome (TCCSUP; TCCSUP, URINARY, 7 days): Cytostatic (cytostatic (IC50<1 μM and % inhibition <70%)) | IC50 (U87MG; Homo sapiens, U-87 MG, 168 h, read-out: Anti-proliferation effect IC50): 7360 nM | Anti-proliferation effect % Inh. (U87MG; U87MG, CNS, 7 days): −5% | Anti-proliferation effect Outcome (U87MG; U87MG, CNS, 7 days): Insensitive (insensitive (IC50≥1 μM))
